From patent US20250380700A1, “HERBICIDAL COMBINATIONS AND A METHOD FOR CONTROLLING UNDESIRED VEGETATION” (UPL Mauritius Limited, priority 2022, published 2025)

System: weedy Glycine max
Test: Post-emergence herbicidal activity trial on weedy Glycine max (observed efficacy vs Colby expected efficacy)
Format: in vivo
Description: Methodology: Trials were conducted to evaluate the efficacy of the combination comprising L-glufosinate ammonium and additional herbicides on weedy Glycine max.
The soil used was sandy clay loam-sand: 68.0%; silt: 8.0%; clay: 24.0%.
All treatments were in 3 replications per treatment with a spray volume of about 150 L/ha.
The expected efficacy of a combination of L-glufosinate ammonium and the other herbicides was calculated using the well-established Colby method. Any difference between the observed and “expected” efficacy could be attributed to synergy between the two compounds.
In the Colby method, the expected (or predicted) response of a combination of herbicides is calculated by taking the product of the observed response for each individual component of the combination when applied alone, divided by 100, and subtracting this value from the sum of the observed response for each component when applied alone. An unexpected enhancement in efficacy of the combination is then determined by comparing the observed response of the combination to the expected (or predicted) response as calculated from the observed response of each individual component alone. If the observed response of the combination is greater than the expected (or predicted) response, or stated conversely, if the difference between the observed and expected response is greater than zero, then the combination is said to be synergistic or unexpectedly effective (Colby, S. R., Weeds, 1967(15), p. 20-22). The Colby method requires only a single dose of each herbicide applied alone and the mixture of both doses. The formula used to calculate the expected efficacy (EE) which was compared with the observed efficacy (OE) to determine the efficacy of the present disclosure is explained hereinbelow:
The expected efficacy for a combination of two active ingredients is as follows:
The expected efficacy for a combination of three active ingredients is as follows:
wherein, • A=Observed efficacy of active ingredient A at the same concentration as used in the mixture. • B=Observed efficacy of the active ingredient B at the same concentration as used in the mixture. • C=Observed efficacy of the active ingredient C at the same concentration as used in the mixture.

`O=C(O)COc1ccc(Cl)cc1Cl` [2,4-D] was tested, and the “Observed efficacy (%) of 2,4-D (228 g a.i./ha)” value (Example 3, Table 4, 3 DAA) was 50% and the “Observed efficacy (%) of 2,4-D (228 g a.i./ha)” value (Example 3, Table 4, 7 DAA) was 60%.

`CP(=O)(O)CC[C@H](N)C(=O)O.N` [L-glufosinate ammonium] was tested, and the “Observed efficacy (%) of L-glufosinate ammonium (150 g a.i./ha)” value (“Observed efficacy (%) … (150 g a.i./ha)” below) (Example 1, Table 2, 3 DAA, post-emergence) was 65%, the “Observed efficacy (%) … (150 g a.i./ha)” value (Example 1, Table 2, 7 DAA, post-emergence) was 65% and the “Observed efficacy (%) … (150 g a.i./ha)” value (Example 2, Table 3, 3 DAA) was 50%. For the same molecule, the “Observed efficacy (%) … (150 g a.i./ha)” value (Example 2, Table 3, 7 DAA) was 65%, the “Observed efficacy (%) … (150 g a.i./ha)” value (Example 3, Table 4, 3 DAA) was 50% and the “Observed efficacy (%) … (150 g a.i./ha)” value (Example 3, Table 4, 7 DAA) was 75%.

In the case of `CC(C)N(C)S(=O)(=O)NC(=O)c1cc(-n2c(=O)cc(C(F)(F)F)n(C)c2=O)c(F)cc1Cl` [Saflufenacil], the “Observed efficacy (%) of Saflufenacil (30 g a.i./ha)” value (Example 1, Table 2, 3 DAA) is reported as 50%, the “Observed efficacy (%) of Saflufenacil (30 g a.i./ha)” value (Example 1, Table 2, 7 DAA) is reported as 70% and the “Observed efficacy (%) of Saflufenacil (30 g a.i./ha)” value (Example 2, Table 3, 3 DAA) is reported as 65%. The “Observed efficacy (%) of Saflufenacil (30 g a.i./ha)” value (Example 2, Table 3, 7 DAA) was 70%, the “Observed efficacy (%) of Saflufenacil (30 g a.i./ha)” value (Example 3, Table 4, 3 DAA) was 65% and the “Observed efficacy (%) of Saflufenacil (30 g a.i./ha)” value (Example 3, Table 4, 7 DAA) was 75%.

In the case of `O=C(O)COc1nc(Cl)c(Cl)cc1Cl` [Triclopyr], the “Observed efficacy (%) of Triclopyr (228 g a.i./ha)” value (Example 2, Table 3, 3 DAA) is reported as 75% and the “Observed efficacy (%) of Triclopyr (228 g a.i./ha)” value (Example 2, Table 3, 7 DAA) is reported as 68%.
